Measured values reported in patent US9346761B2, “Arginine methyltransferase inhibitors and uses thereof” (Epizyme, Inc., priority 2013, dated 2016).

Legend:
[1] = target: T1, Full-length human PRMT1 isoform 1 (Homo sapiens, UniProt Q99873); assay: PRMT1 biochemical assay (3H-SAM Flashplate, peptide substrate)
T1 construct: GST-tagged PRMT1; made in house; host or cells: High Five insect cells (baculovirus, pFastBacI)
Description: (§1) General Materials. S-adenosylmethionine (SAM), S-adenosylhomocysteine (SAH), bicine, Tween20, dimethylsulfoxide (DMSO), bovine skin gelatin (BSG), and Tris(2-carboxyethyl)phosphine hydrochloride solution (TCEP) were purchased from Sigma-Aldrich at the highest level of purity possible. ^3H-SAM was purchase from American Radiolabeled Chemicals with a specific activity of 80 Ci/mmol. 384-well streptavidin Flashplates were purchased from PerkinElmer.
Protein Expression. Recombinant baculovirus were generated according to Bac-to-Bac kit instructions (Life Technologies). […] Infections were carried out at 27° C. for 48 hours, harvested by centrifugation, and stored at −80° C. for purification.
Protein Purification. […] GST-tagged PRMT1 was eluted with 50 mM Tris, 2 mM glutathione, pH 7.8, dialysed in buffer A and concentrated to 1 mg/mL.
(§2) General Procedure for PRMT1 Enzyme Assays on Peptide Substrates. The assays were all performed in a buffer consisting of 20 mM Bicine (pH=7.6), 1 mM TCEP, 0.005% BSG, and 0.002% Tween 20, prepared on the day of use. […] DMSO (1 ul) was added to Columns 11, 12, 23, 24, rows A-H for the maximum signal control and 1 ul of SAH, a known product and inhibitor of PRMT1, was added to columns 11, 12, 23, 24, rows I-P for the minimum signal control. A cocktail (40 ul) containing the PRMT1 enzyme was added by Multidrop Combi (Thermo-Fisher). The compounds were allowed to incubate with PRMT1 for 30 min at room temperature, then a cocktail (10 ul) containing SAM and peptide was added to initiate the reaction (final volume=51 ul). […] The assays were stopped by the addition of non-radiolabeled SAM (10 ul) to a final concentration of 300 uM, which dilutes the ^3H-SAM to a level where its incorporation into the peptide substrate is no longer detectable. 50 ul of the reaction in the 384-well polypropylene plate was then transferred to a 384-well Flashplate and the biotinylated peptides were allowed to bind to the streptavidin surface for at least 1 hour before being washed once with 0.1% Tween20 in a Biotek ELx405 plate washer. The plates were then read in a PerkinElmer TopCount plate reader to measure the quantity of ^3H-labeled peptide bound to the Flashplate surface, measured as disintegrations per minute (dpm) or alternatively, referred to as counts per minute (cpm).
(§3) Where dpm=disintegrations per minute, cmpd=signal in assay well, and min and max are the respective minimum and maximum signal controls.
(§4) Where top and bottom are the normally allowed to float, but may be fixed at 100 or 0 respectively in a 3-parameter fit. The Hill Coefficient normally allowed to float but may also be fixed at 1 in a 3-parameter fit. Y is the % inhibition and X is the compound concentration.

[2] = system: mono-methyl arginine in RKO cells; assay: RKO methylation assay, In Cell Western for mono-methyl arginine and DNA content; format: cell-based; details: Homo sapiens; In Cell Western, RKO cells, 72 hours, percent activation of mono-methyl arginine signal; read-out: EC30
Description: RKO adherent cells were purchased from ATCC (American Type Culture Collection), Manassas, Va., USA. DMEM/Glutamax medium, penicillin-streptomycin, heat inactivated fetal bovine serum, 0.05% trypsin and D-PBS were purchased from Life Technologies, Grand Island, N.Y., USA. Odyssey blocking buffer, 800CW goat anti-rabbit IgG (H+L) antibody, and Licor Odyssey infrared scanner were purchased from Licor Biosciences, Lincoln, Nebr., USA. Mono-methyl arginine antibody was purchased from Cell Signaling Technology, Danvers, Mass., USA. Methanol was purchased from VWR, Franklin, Mass., USA. 10% Tween 20 was purchased from KPL, Inc., Gaithersburg, Md., USA. […] was purchased from Biostatus Limited, Leicestershire, UK.
RKO adherent cells were maintained in growth medium (DMEM/Glutamax medium supplemented with 10% v/v heat inactivated fetal bovine serum and 100 units/mL penicillin-streptomycin) and cultured at 37° C. under 5% CO2
Cell Treatment, in Cell Western (ICW) for Detection of Mono-Methyl Arginine and DNA Content. […] Compound (100 nL) from a 96-well source plate was added directly to 384 well cell plate. Plates were incubated at 37° C., 5% CO2 for 72 hours. After three days of incubation, plates were brought to room temperature outside of the incubator for ten minutes and blotted on paper towels to remove cell media. 50 μL of ice cold 100% methanol was added directly to each well and incubated for 30 min at room temperature. After 30 min, plates were transferred to a Biotek EL406 plate washer and washed 2 times with 100 μL per well of wash buffer (1×PBS). Next 60 μL per well of Odyssey blocking buffer (Odyssey Buffer with 0.1% Tween 20 (v/v)) were added to each plate and incubated 1 hour at room temperature. Blocking buffer was removed and 20 μL per well of primary antibody was added (mono-methyl arginine diluted 1:200 in Odyssey buffer with 0.1% Tween 20 (v/v)) and plates were incubated overnight (16 hours) at 4° C. Plates were washed 5 times with 100 μL per well of wash buffer. […] The plates were washed 5 times with 100 μL per well wash buffer then 2 times with 100 μL per well of water. Plates were allowed to dry at room temperature then imaged on the Licor Odyssey machine which measures integrated intensity at 700 nm and 800 nm wavelengths. Both 700 and 800 channels were scanned.
Calculations: First, the ratio for each well was determined by:
Each plate included fourteen control wells of DMSO only treatment (minimum activation) as well as fourteen control wells for maximum activation treated with 20 μM of a reference compound. The average of the ratio values for each control type was calculated and used to determine the percent activation for each test well in the plate. Reference compound was serially diluted three-fold in DMSO for a total of nine test concentrations, beginning at 20 μM. Percent activation was determined and EC30 curves were generated using triplicate wells per concentration of compound.

Full-length human PRMT6 = target: T2, Full-length human PRMT6 (Homo sapiens, UniProt Q96LA8); assay: PRMT6 biochemical assay (3H-SAM Flashplate, peptide substrate)
T2 construct: Flag-PRMT6-His was eluted with 200 ug/ml FLAG peptide in the same buffer; made in house; host or cells: HEK 293F cells (BacMam virus, pFastBacMam)
Description: as §1, with “(BSG), sodium butyrate” for “(BSG),”
Substrates. Peptide representative of human histone H4 residues 36-50 was synthesized with an N-terminal linker-affinity tag motif and a C-terminal amide cap by 21st Century Biochemicals.
The amplified gene was subcloned into pFastBacMam (Viva Biotech).
Protein Expression. Recombinant baculovirus were generated according to Bac-to-Bac kit instructions (Life Technologies). […] Infections were carried out at 37° C. for 48 hours, harvested by centrifugation, and stored at −80° C. for purification.
Protein Purification. […] Column was washed with 20 mM imidazole in the same buffer and Flag-PRMT6-His was eluted with 150 mM imidazole. Pooled fractions were dialysed against buffer Ni-A and further purified by anti-flag M2 affinity chromatography. Flag-PRMT6-His was eluted with 200 ug/ml FLAG peptide in the same buffer. Pooled fractions were dialysed in 20 mM Tris, 150 mM NaCl, 10% glycerol and 5 mM β-mercaptoethanol, pH 7.8.
as §2, with “PRMT6” for “PRMT1”, “PRMT6,” for “PRMT1,”, “400” for “300”
as §3, §4

T1 sequence (Q99873 with tags, fused parts or gaps): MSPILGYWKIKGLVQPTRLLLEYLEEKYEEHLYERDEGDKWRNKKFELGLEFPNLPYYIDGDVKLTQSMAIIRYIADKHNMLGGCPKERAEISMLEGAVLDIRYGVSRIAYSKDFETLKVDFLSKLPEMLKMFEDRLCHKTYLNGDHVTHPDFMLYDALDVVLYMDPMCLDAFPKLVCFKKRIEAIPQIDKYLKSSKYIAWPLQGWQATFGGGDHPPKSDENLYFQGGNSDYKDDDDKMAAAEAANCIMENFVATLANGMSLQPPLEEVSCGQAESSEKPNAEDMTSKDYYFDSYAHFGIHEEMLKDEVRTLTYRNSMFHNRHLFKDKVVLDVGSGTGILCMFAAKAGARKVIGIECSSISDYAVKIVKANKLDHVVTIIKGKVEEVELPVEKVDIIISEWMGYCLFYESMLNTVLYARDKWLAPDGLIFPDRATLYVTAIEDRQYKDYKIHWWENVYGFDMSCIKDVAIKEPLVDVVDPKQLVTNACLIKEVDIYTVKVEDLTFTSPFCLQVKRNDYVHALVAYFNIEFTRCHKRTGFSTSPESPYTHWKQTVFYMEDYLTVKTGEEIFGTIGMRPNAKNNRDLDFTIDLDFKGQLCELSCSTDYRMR
T2 sequence (Q96LA8 with tags, fused parts or gaps): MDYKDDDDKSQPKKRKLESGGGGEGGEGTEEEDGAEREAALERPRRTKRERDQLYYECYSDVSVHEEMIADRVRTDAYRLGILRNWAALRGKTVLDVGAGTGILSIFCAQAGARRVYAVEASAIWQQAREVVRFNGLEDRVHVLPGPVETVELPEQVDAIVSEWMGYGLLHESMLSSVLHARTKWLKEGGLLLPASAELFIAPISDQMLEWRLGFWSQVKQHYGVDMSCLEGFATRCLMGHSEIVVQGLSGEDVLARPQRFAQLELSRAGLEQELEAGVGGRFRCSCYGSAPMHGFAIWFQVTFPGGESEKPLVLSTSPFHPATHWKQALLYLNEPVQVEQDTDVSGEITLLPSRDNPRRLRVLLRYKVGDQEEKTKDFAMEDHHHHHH

Row | Structure (SMILES) | IC50 [1] | EC30 [2] | IC50 (Full-length human PRMT6)
1 | CNCCN(C)Cc1n[nH]cc1-c1ccc(Oc2cccc(C(=O)NC)c2)cc1 [Compound 268] | < 0.1 µM | 3.01 to 12 µM | < 0.1 µM
2 | CNCCN(C)Cc1n[nH]cc1-c1ccc(Oc2cccc(C(C)C)c2)cc1 [Compound 277] | < 0.1 µM | > 12 µM | < 0.1 µM
3 | CNCCN(C)Cc1c[nH]nc1-c1cc(C(C)C)cc(C(C)C)c1 [Compound 229, N^1-((3-(3,5-diisopropylphenyl)-1H-pyrazol-4-yl)methyl)-N^1,N^2-dimethylethane-1,2-diamine] | < 0.1 µM | 3.01 to 12 µM | 0.101 to 1 µM
4 | CN(CCN)Cc1c[nH]nc1-c1ccc(OCCCN2CCOCC2)cc1 [Compound 186] | – | > 12 µM | < 0.1 µM
5 | CNCCN(C)Cc1c[nH]nc1-c1ccc(Oc2cccc(F)c2)cc1 [Compound 231] | < 0.1 µM | < 3 µM | < 0.1 µM
6 | COCCn1cnc(-c2ccc(C#N)cc2)c1CN(C)CCN [Compound 223] | > 10 µM | > 12 µM | –
7 | CNCCN(C)Cc1c[nH]nc1-c1cc(CC(C)C)cc(CC(C)C)c1 [Compound 281] | < 0.1 µM | 3.01 to 12 µM | 0.101 to 1 µM
8 | CNCCN(C)Cc1n[nH]cc1-c1ccc(Oc2ccccc2F)cc1 [Compound 279, N^1-((4-(4-(2-fluorophenoxy)phenyl)-1H-pyrazol-3-yl)methyl)-N^1,N^2-dimethylethane-1,2-diamine] | < 0.1 µM | < 3 µM | < 0.1 µM
9 | CNCCN(C)Cc1cn(Cc2ccncc2)nc1-c1ccc(OC(C)C)cc1 [Compound 245] | < 0.1 µM | < 3 µM | 0.101 to 1 µM
10 | CNCCN(C)Cc1c[nH]nc1-c1ccc(Oc2cccc(C(=O)NC)c2)cc1 [Compound 263] | < 0.1 µM | < 3 µM | < 0.1 µM
11 | CNCCN(C)Cc1n[nH]cc1-c1ccc(Oc2cccc(F)c2)cc1 [Compound 270] | < 0.1 µM | < 3 µM | < 0.1 µM
12 | CNCCN(C)Cc1c[nH]nc1-c1ccc(OC(C)C)cc1 [Compound 19, N^1-((3-(4-isopropoxyphenyl)-1H-pyrazol-4-yl)methyl)-N^1,N^2-dimethylethane-1,2-diamine] | – | < 3 µM | < 0.1 µM
13 | CNCCN(C)Cc1c[nH]nc1-c1ccc(Oc2ccccc2)c(C(=O)NC)c1 [Compound 232] | < 0.1 µM | 3.01 to 12 µM | < 0.1 µM
14 | CNCCN(C)Cc1n[nH]c(C)c1-c1ccc(OC(C)C)cc1 [Compound 275] | < 0.1 µM | < 3 µM | < 0.1 µM
15 | CN(CCN)Cc1c[nH]nc1-c1ccc(N2CCN(C(=O)Cc3ccccc3)CC2)cc1 [Compound 190] | – | 3.01 to 12 µM | < 0.1 µM
16 | CNCCN(C)Cc1c[nH]nc1-c1ccc(Oc2ccccc2)c(C(=O)N(C)C)c1 [Compound 233] | < 0.1 µM | > 12 µM | < 0.1 µM
17 | CNCCN(C)Cc1c[nH]nc1-c1cc(OC(C)C)cc(C(C)C)c1 [Compound 260] | < 0.1 µM | 3.01 to 12 µM | 0.101 to 1 µM
18 | CNCCN(C)Cc1c(-c2ccc(OCCCOC)cc2)cnn1C [Compound 276] | > 10 µM | > 12 µM | 1.01 to 3 µM
19 | CNCCN(C)Cc1c[nH]nc1-c1ccc(Oc2cccc(C(=O)N(C)C)c2)cc1 [Compound 264] | – | 3.01 to 12 µM | < 0.1 µM
20 | CNCCN(C)Cc1cn[nH]c1-c1ccc(OC(C)C)c(Cl)c1 [Compound 201] | – | < 3 µM | < 0.1 µM
21 | CNCCN(C)Cc1n[nH]cc1-c1ccc(Oc2ccccc2C(=O)NC)cc1 [Compound 278] | – | 3.01 to 12 µM | < 0.1 µM
22 | CNCCN(C)Cc1cnn(C)c1-c1ccc(OC(C)C)c(Cl)c1 [Compound 220, N^1-((5-(3-chloro-4-isopropoxyphenyl)-1-methyl-1H-pyrazol-4-yl)methyl)-N^1,N^2-dimethylethane-1,2-diamine] | – | < 3 µM | < 0.1 µM
23 | CN(CCN)Cc1c[nH]nc1-c1ccc(Oc2ccccc2)cc1 [Compound 200] | – | < 3 µM | –
24 | CNCCN(C)Cc1n[nH]cc1-c1ccc(Oc2cccc(C(=O)N(C)C)c2)cc1 [Compound 269] | – | > 12 µM | < 0.1 µM
